Reference: PMC5395648, “Targeted Modification of a Novel Amphibian Antimicrobial Peptide from Phyllomedusa tarsius to Enhance Its Activity against MRSA and Microbial Biofilm” (Frontiers in Microbiology, 2017)
Values after ≈ are worked out from the molar mass of the structure shown. Non-standard residues stand in square brackets, D forms with d. Residues, ends and D or L forms follow the SMILES beside them. No end group written: not given here.

Assays:
S. aureus biofilm = type: cell-based, Staphylococcus aureus; conditions: for MBEC: 48 h
Method: MBIC and MBEC assays were performed using microtiter plates based on a modified 2,3,5-triphenyl tetrazolium chloride (TTC) method (Sabaeifard et al., [2014]). Overnight cultures were washed with sterile phosphate-buffered saline (PBS) and diluted with fresh broth to 10^7 CFU/ml. […] For the MBEC assay, 200 μl of inoculum was placed in a flat-bottomed microtiter plate for 48 h to form mature biofilms. Following sufficient growth time, mature biofilms were washed twice to remove the planktonic cells and incubated with a series of peptide concentrations (1–512 μg/ml) at 37°C for 20–24 h. After sufficient growth, plates were washed twice with sterile PBS followed by the addition of fresh medium (200 μl per well) and stained with 50 μl 1% TTC (g/v) solution for 5 h. After incubation, 200 μl of the supernatant from each well were transferred to a new plate and their absorbance values were measured at 470 nm using a Synergy HT plate reader (BioTek, USA).

horse erythrocytes = type: cell-based
Method: The haemolysis assay was performed by mixing the peptides with mammalian erythrocytes obtained from fresh defibrinated horse blood. An appropriate volume of horse blood was transferred and washed with PBS until the supernatant was clear. A series of peptide solutions were incubated with a 2% suspension of red blood cells at final concentrations of 1-512 μg/ml at 37°C for 2 h. For positive and negative controls, the red blood cells were incubated with 1% Triton-X 100 and PBS, respectively. After incubation, 200 μl of the supernatant from each sample was transferred to a microtiter plate and the absorbance at 550 nm was measured with a Synergy HT plate reader (BioTek, USA). The therapeutic index (TI), a parameter recommended by the US FDA to indicate safety/efficacy usage, was calculated as the peptide concentration causing 50% haemolysis of the red bloods cells (HC50) divided by the geometric mean of the peptide MICs against the relevant bacteria (GM). […] In the former case, the MIC that was used when no inhibition was observed was the 2-fold maximum tested value ([…] al., [2016]). Data were analyzed to obtain the mean and standard error of responses. The statistical analyses were performed by one-way ANOVA and the statistical significance of the differences was indicated as ^*p < 0.05, ^**p < 0.01, ^***p < 0.001, and ^****p < 0.0001. The dose-response curves were constructed using a “best-fit” algorithm and HC50 was calculated through the data analysis package provided in GraphPad Prism 6 (GraphPad Software, USA).

[1] = test system: Staphylococcus aureus (NCTC10788)
Method: (§1) The antimicrobial activity of each synthetic peptide was evaluated using the broth dilution method (Wiegand et al., [2008]). In brief, different concentrations of the peptides were incubated with microorganisms under defined conditions. Six different microorganisms were used in the assay: the Gram-positive bacteria Staphylococcus aureus (NCTC10788), Enterococcus faecalis (NCTC12697), and methicillin-resistant Staphylococcus aureus (MRSA) (NCTC 12493); the Gram-negative bacteria Escherichia coli (NCTC 10418) and Pseudomonas aeruginosa (ATCC 27853); and the yeast Candida albicans (NCYC 1467). Each microorganism was cultured in fresh Mueller-Hinton broth (MHB) overnight and then subcultured in fresh medium to a cell density equivalent to 10^8 colony-forming units (CFU)/ml. The microbial suspension was diluted with fresh MHB to a concentration of 1 × 10^5 CFU/ml. Peptide samples were dissolved in the culture medium MHB to prepare a 100-fold stock solutions and then 1 μl of each peptide solution was mixed with 99 μl of diluted bacterial culture to get a final concentration range from 1 to 512 μg/ml in two-fold dilution. […] From these wells, 10 μl of the overnight culture were added to a Mueller-Hinton agar (MHA) plate and cultured at 37°C for 16–20 h.

[2] = test system: methicillin-resistant Staphylococcus aureus (MRSA) (NCTC 12493)
Method: as §1

[3] = test system: Enterococcus faecalis (NCTC12697)
Method: as §1

[4] = test system: Candida albicans (NCYC 1467)
Method: as §1

[5] = test system: Escherichia coli (NCTC 10418)
Method: as §1

[6] = test system: Pseudomonas aeruginosa (ATCC 27853)
Method: as §1

Method for E. coli: The stability of the peptides was investigated by incubating them with serum and evaluating the loss of antimicrobial activity. […] Following a 4 h incubation at 37°C, the peptide solutions were briefly centrifuged and 1 μl of each concentration was mixed with 99 μl of diluted bacterial culture (5 × 10^5 CFU/ml) in a 96-well plate. The plate was then incubated at 37°C for 16–20 h. The MICs in the presence of serum were determined by use of a Synergy HT plate reader (BioTek, USA).

Row | Compound | MBIC (S. aureus biofilm) | MBEC (S. aureus biofilm) | HC50 (horse erythrocytes) | MBC [1] | MIC [1] | MBC [2] | MIC [2] | MBC [3] | MIC [3] | MBC [4] | MIC [4] | MBC [5] | MIC [5] | MBC [6] | MIC [6] | MIC after serum degradation 4 h (E. coli) | haemolytic activity (in words) (horse erythrocytes)
1 | CC[C@H](C)[C@H](NC(=O)[C@H](C)NC(=O)[C@H](CCCCN)NC(=O)[C@@H](NC(=O)[C@H](C)NC(=O)[C@@H](NC(=O)[C@@H]1CCCN1C(=O)[C@@H](NC(=O)[C@H](CCSC)NC(=O)CNC(=O)[C@@H](CC(C)C)NC(=O)[C@@H](N)CC(C)C)[C@@H](C)CC)C(C)C)[C@@H](C)CC)C(=O)N[C@@H](CO)C(=O)N[C@@H](C)C(=O)N[C@@H](CC(C)C)C(=O)N[C@@H](CO)C(=O)N[C@@H](CCCCN)C(=O)N[C@@H](CC(C)C)C(N)=O [medusin-PT1a] (H-L[dL]GMIPVAIKAISALSKL-NH2) | 32 µg/mL | 64 µg/mL | 226.7 µg/mL | 16 µg/mL (≈ 8.71 µM) | 8 µg/mL (≈ 4.35 µM) | 32 µg/mL (≈ 17.4 µM) | 16 µg/mL (≈ 8.71 µM) | 32/32 μg/ml | 32/32 μg/ml | 8/8 μg/ml | 8/8 μg/ml | 128/128 μg/ml | 128/128 μg/ml | > 512 µg/mL | 128 µg/mL (≈ 69.7 µM) | – | –
2 | LLGMIKVAITAISALSKL-NH2 [medusin-PT2] | 32 µg/mL | 256 µg/mL | 93.83 µg/mL | 16 µg/mL | 8 µg/mL | 32/32 μg/ml | 32/32 μg/ml | 32/32 μg/ml | 32/32 μg/ml | 8/8 μg/ml | 8/8 μg/ml | – | – | >512/>512 μg/ml | – | – | –
3 | LLGMIPVAIKAISALSKL-NH2 [medusin-PT1] | 32 µg/mL | 128 µg/mL | 102.2 µg/mL | 16 µg/mL | 8 µg/mL | 32 µg/mL | 16 µg/mL | 32/32 μg/ml | 32/32 μg/ml | 16/16 μg/ml | 16/16 μg/ml | – | – | >512/>512 μg/ml | >512/>512 μg/ml | > 512 µg/mL | –
4 | LLGMIPVAITAISALSKL-NH2 [medusin-PT] | 512 µg/mL | >512 µg/mL | 1.814e+06 µg/mL | 128 µg/mL | 64 µg/mL | >512/>512 μg/ml | >512/>512 μg/ml | >512/>512 μg/ml | >512/>512 μg/ml | >512/>512 μg/ml | >512/>512 μg/ml | >512/>512 μg/ml | – | >512/>512 μg/ml | – | – | extremely low haemolytic activity
